This note sets out measurements from ChEMBL document CHEMBL1158852, “A new sesquiterpene ester from Celastrus orbiculatus reversing multidrug resistance in cancer cells” (J Nat Prod, 1998).

As a reminder, the IC50 is the concentration that gives 50% inhibition.

Assay [1] can be described thus: Cytotoxicity against human KB-3-1 cells by SRB assay. The format is functional, cell-based. In general terms: The SRB assay estimates cell density from bound dye.
Assay [2] can be described thus: Cytotoxicity against drug-resistant human KBV1 cells by SRB assay. The format is functional, cell-based. To be noted: KB-V1.
Assay [3] in a line: Cytotoxicity against drug-resistant human KBV1 cells in presence of 0.1 uM Vinblastine by SRB assay. It counts as functional, cell-based. The settings on record: KB-V1.
For assay [4], the system named is MCF7. As to the kind of experiment: Cytotoxicity against human MCF7 cells by SRB assay. The format is functional, cell-based.
A short description of assay [5]: Cytotoxicity against drug-resistant human MCF7/ADR cells by SRB assay. The format is functional, cell-based. To be noted: NCI/ADR-RES.
Assay [6] is described as follows: Cytotoxicity against drug-resistant human MCF7/ADR cells in presence of 10 uM Adriamycin by SRB assay. The format is functional, cell-based. To be noted: NCI/ADR-RES.
Assay [7] deals with SNB-19. Kind of assay: Cytotoxicity against human SNB19 cells by SRB assay. The format is functional, cell-based.
Assay [8] has as its system SK-OV-3. Kind of assay: Cytotoxicity against human SKOV3 cells by SRB assay. The format is functional, cell-based.
The test system of assay [9] is NCI-H23. As to the kind of experiment: Cytotoxicity against human NCI-H23 cells by SRB assay. It counts as functional, cell-based.
In assay [10] the test system is UACC-62. Kind of assay: Cytotoxicity against human UACC62 cells by SRB assay. It counts as functional, cell-based.
For assay [11], the system named is KM12. Kind of assay: Cytotoxicity against human KM12 cells by SRB assay. It counts as functional, cell-based.
A short description of assay [12]: Cytotoxicity against human MOLT cells by SRB assay. The format is functional, cell-based.
In assay [13] the test system is KBV1. As to the kind of experiment: Inhibition of P-gp-mediated multidrug resistance assessed as ratio of Adriamycin IC50 for drug-resistant human KBV1 cells to drug-sensitive human KB-3-1 cells at 3 uM. The format is cell-based.
For assay [14], the system named is KBV1. As to the kind of experiment: Inhibition of P-gp-mediated multidrug resistance assessed as ratio of Vinblastine IC50 for drug-resistant human KBV1 cells to drug-sensitive human KB-3-1 cells at 3 uM. The format is cell-based.
The test system of assay [15] is KBV1. Kind of assay: Inhibition of P-gp-mediated multidrug resistance assessed as ratio of Paclitaxel IC50 for drug-resistant human KBV1 cells to drug-sensitive human KB-3-1 cells at 3 uM. The format is cell-based.

On to `CC(=O)O[C@H]1C[C@@H](C)[C@]23OC(C)(C)[C@H](C[C@H](OC(=O)c4ccccc4)[C@]2(C)[C@H]1OC(C)=O)[C@H]3OC(=O)c1ccccc1` [ORBICULIN A], for which the IC50 stood at 49 µM in assay [1]; 64.9 µM in [2]; 0.8 µM in [3]; 53.2 µM in [4]; 61.9 µM in assay [5]; 1.15 µM in [6]. The IC50 stood at 40.8 µM in assay [7]; 48.4 µM in [8]; 41.9 µM in assay [9]; 38.8 µM in [10]; 38.6 µM in assay [11]; 7.33 µM in assay [12].
Regarding `CC(=O)O[C@H]1CC[C@@H](C)[C@]23OC(C)(C)[C@H](C[C@H](OC(=O)c4ccccc4)[C@]12C)[C@H]3OC(=O)c1ccccc1`, the IC50 amounted to 9.26 µM in [1]; 13 µM in assay [2]; 1.36 µM in [3]; 10.8 µM in assay [4]; 14.4 µM in assay [5]; 1.39 µM in [6]. For the same compound, the IC50 in assay [7] turned out to be 18.3 µM; in assay [8], 19.3 µM; in assay [9], 16.8 µM; in [10], 12.9 µM; in assay [11] it was 14.9 µM; in [12], 3.05 µM. In addition, the Ratio IC50 stood at 98.8 in assay [13], 63.9 in assay [14] and 37.1 in [15].
